Read-outs that look alike come from different tables or passages of the source.
Assays:
[1] = tested on: phosphorylation of EGFR (Tyr1068) in NCI-H1975 cell line that harbors the EGFR L858R T790M mutations; experiment: NCI-H1975 pEGFR AlphaLISA assay; format: cell-based; details: 4-5 hours incubation, read-out: Ext pEGFR H1975
Procedure, shortened: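 Phospho-EGFR Tyr1068 AlphaLISA readout: lysates taken from compound-treated H1975 cells (L858R T790M EGFR) after a 4-5 h exposure at 37 °C. Cells had adhered overnight beforehand. IC50 derived by plotting % pEGFR inhibition against log compound concentration.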

[2] = tested on: pEGFR_LR/TM/G796S mutant EGFR expressing Ba/F3 cells; experiment: pEGFR_LR/TM/G796S AlphaLISA assay in Ba/F3 cells; format: cell-based; details: Mus musculus, BaF3, 4 hrs incubation, geometric mean, read-out: Ext pEGFR_LR/TM/G796S GMean IC50
Protocol: Mutant EGFR expressing Ba/F3 cells were resuspended in fresh 10% FBS RPMI and plated at 1.0×10^6 cells/mL. On the next day, the cells were harvested and diluted in fresh medium at 1.25×10^6 cells/mL. 40 μL of cells were added to each well of a 384-well microplate (Corning 3764). In a clear 384-well polypropylene microplate, test compounds and DMSO were added. DMSO was a negative control and staurosporine was a positive control. The cell plate was placed in a humidified 37° C. incubator for 4 hrs. The cell plate was spun to pellet the cells and the media was removed. 10 μL of 1×AlphaLISA Lysis Buffer with 1× protease and phosphatase inhibitors was added to the cells and plate was shaken at 600 rpm for 30 min. The cell lysates were transferred from cell plate to a white opaque 384-well microplate (OptiPlate-384). 5 μL of acceptor mix was added to the cell lysate and the plate was shaken at 600 rpm for 10 min, gently tapped and sealed with foil. It was then incubated at RT for 1.5-2 hr. Under low light conditions, lx donor mix was prepared right prior to use. 5 μL of donor mix was added to the plate under subdued lighting or green filters. The plate was shaken at 600 rpm for 10 min, gently tapped and sealed with foil. It was then incubated overnight at RT in dark. After overnight incubation, the plate was read on an EnVision Multilabel Reader. All IC50 representative curves were plotted using GraphPad Prism (version 8.00 for Windows, GraphPad Software, San Diego California USA). The percentage of inhibition on EGFR phosphorylation was calculated following equation below: […]
An IC50 was calculated by fitting the curve using Nonliner fit with log(inhibitor) vs. response−Variable slope (four parameters) model.

[3] = molecular target: T1, EGFR (L858R T790M C797S) (Homo sapiens, UniProt P00533, C797S/L858R/T790M); experiment: Biochemical EGFR inhibition assay (Caliper mobility shift), EGFR LRTMCS mutant; details: inhibitory activity against EGFR LRTMCS mutant; apparent IC50; read-out: Ext Enz LRTMCS
T1 construct: purchased SignalChem E10-122VG
Procedure, shortened: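 Kinase reactions at 25 °C run to 10–20% peptide phosphorylation, stopped with 35 mM EDTA. Phosphorylated product and substrate separated electrophoretically by mobility shift. Apparent IC50 from percent activity versus log compound concentration.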

[4] = molecular target: T2, EGFR (D770_N771insNPG T790M) (Homo sapiens, UniProt P00533, INS770NPG/T790M); experiment: Biochemical EGFR inhibition assay (mobility shift), EGFR D770_N771insNPG T790M; details: inhibitory activity against EGFR_D770_N771insNPG/T790M mutant; apparent IC50; read-out: Enz EGFR_D770_N771insNPG/T790M
T2 construct: purchased SignalChem E10-132TG
Protocol: Inhibitory effects of the compounds of the disclosure were measured in biochemical assays that measure the phosphorylation activity of EGFR enzyme phosphorylates 2.5 micromolar 5-FAM-[…]-CONH2 peptide substrate (FL-Peptide 22, PerkinElmer, 760366) in the presence of adenosine-5′-triphosphate (ATP) and varying concentrations of the test compound. […] Reactions proceeded until between 10% to 20% total peptides were phosphorylated at room temperature (25° C.) and were terminated with 35 mM 2,2′,2″,2′″-(ethane-1,2-diyldinitrilo)tetraacetic acid (EDTA). EGFR enzymatic activity was monitored using the Perkin Elmer electrophoretic mobility shift technology platform (the Caliper mobility shift detection method) where the phosphorylated peptide (product) and substrate were electrophoretically separated and measured. Percent activity was plotted against log concentration of compound and points to generate an apparent IC50. The following enzyme forms of EGFR were examples that were used in these assays: • EGFR WT (SignalChem, E10-112G) • EGFR (L858R T790M C797S) (SignalChem, E10-122VG) • EGFR (d746-750) T790M C797S (SignalChem, E10-122UG) • EGFR L858R (SignalChem, E10-122BG) • EGFR (d746-750) (SignalChem, E10-122JG) • EGFR (D770_N771insNPG T790M) (SignalChem, E10-132TG) • EGFR (D770_N771insNPG) (SignalChem, E10-132GG)

[5] = Homo sapiens, NCI-H1975, inhibition of phosphorylation of mutant EGFR in NCI-H1975 cells

Row | Compound | IC50 [1, 5] [nM] | IC50 [2] [nM] | IC50 [3] [nM] | IC50 [4] [nM] | IC50 ([1]; inhibition of phosphorylation of mutant EGFR in NCI-H1975 cells) [nM]
1 | [2H]C([2H])([2H])O[C@H]1CCN(c2nccc(Nc3cc4c(C(C)C)ccc(N5C[C@H](CS(C)(=O)=O)[C@H]5C)c4cn3)n2)C[C@H]1F (single isomer, unassigned) [Compound 283] | ≤ 10 | 20.1 to 100 |  |  | 
2 | CC(C)c1ccc(N2C[C@H](CS(C)(=O)=O)[C@H]2C)c2cnc(Nc3ccnc(N4CC[C@](C)(O)[C@H](F)C4)n3)cc12 (single isomer, unassigned) [Compound 118] | ≤ 10 | 250 to 750 | ≤ 15 |  | 
3 | [2H]C([2H])([2H])O[C@@H]1CCN(c2nccc(Nc3cc4c(C(C)C)ncc(N5CC(CS(C)(=O)=O)C5)c4cn3)n2)C[C@@H]1F [Compound 265, N-{2-[(3S,4R)-3-fluoro-4-(^2H3)methoxypiperidin-1-yl]pyrimidin-4-yl}-8-[3-(methanesulfonylmethyl)azetidin-1-yl]-5-(propan-2-yl)-2,6-naphthyridin-3-amine] | ≤ 10 |  | ≤ 15 | 100 to 250 | 
4 | CC(C)c1ccc(N2C[C@H](CS(C)(=O)=O)[C@H]2C)c2cnc(Nc3ccnc(N4CC[C@@](C)(O)[C@@H](F)C4)n3)cc12 (single isomer, unassigned) [Compound 117] | ≤ 10 | 250 to 750 | ≤ 15 |  | 
5 | CC(C)c1ccc(N2C[C@H](CS(C)(=O)=O)[C@H]2C)c2cnc(Nc3ccnc(N4CC[C@@H](O)[C@@](C)(F)C4)n3)cc12 (single isomer, unassigned) [Compound 111] | ≤ 10 | 20.1 to 100 |  |  | 
6 | CC(C)c1ccc(N2CC(CS(C)(=O)=O)C2)c2cnc(Nc3ccnc(N4CC[C@@H](O)[C@@](C)(F)C4)n3)cc12 (single isomer, unassigned) [Compound 55] | ≤ 10 | ≤ 20 |  |  | 
7 | [2H]C([2H])([2H])O[C@@H]1CCN(c2nccc(Nc3cc4c(C(C)C)ccc(N5C[C@H](CS(C)(=O)=O)[C@H]5C)c4cn3)n2)C[C@@H]1F (single isomer, unassigned) [Compound 282] | ≤ 10 | 20.1 to 100 |  |  | 
8 | CO[C@@H]1CCN(c2nccc(Nc3cc4c(C(C)C)ncc(N5C[C@H](CS(C)(=O)=O)[C@H]5C)c4cn3)n2)C[C@@H]1O (single isomer, unassigned) [Compound 103, (3S,4R)-1-(4-(5-isopropyl-8-((2R,3S)-2-methyl-3-(methylsulfonylmethyl)azetidin-1-yl)-2,6-naphthyridin-3-ylamino)pyrimidin-2-yl)-4-methoxypiperidin-3-ol or (3R,4S)-1-(4-(5-isopropyl-8-((2R,3S)-2-methyl-3-(methylsulfonylmethyl)azetidin-1-yl)-2,6-naphthyridin-3-ylamino)pyrimidin-2-yl)-4-methoxypiperidin-3-ol] | 10.1 to 20 |  | ≤ 15 |  | 
9 | CC(C)c1ncc(N2C[C@H](CS(C)(=O)=O)[C@H]2C)c2cnc(Nc3ccnc(N4CC[C@H](OCC(C)(C)O)[C@H](F)C4)n3)cc12 [Compound 257, 1-{[(3R,4S)-3-fluoro-1-[4-({8-[(2R,3S)-3-(methanesulfonylmethyl)-2-methylazetidin-1-yl]-5-(propan-2-yl)-2,6-naphthyridin-3-yl}amino)pyrimidin-2-yl]piperidin-4-yl]oxy}-2-methylpropan-2-ol] | 10.1 to 20 |  | 15.1 to 20 |  | 
10 | CC(C)c1ccc(N2C[C@H](CS(C)(=O)=O)[C@H]2C)c2cnc(Nc3ccnc(N4CC[C@@](C)(O)C(F)(F)C4)n3)cc12 (single isomer, unassigned) [Compound 211, (R)-3,3-difluoro-1-(4-(5-isopropyl-8-((2R,3S)-2-methyl-3-(methylsulfonylmethyl)azetidin-1-yl)isoquinolin-3-ylamino)pyrimidin-2-yl)-4-methylpiperidin-4-ol or (S)-3,3-difluoro-1-(4-(5-isopropyl-8-((2R,3S)-2-methyl-3-(methylsulfonylmethyl)azetidin-1-yl)isoquinolin-3-ylamino)pyrimidin-2-yl)-4-methylpiperidin-4-ol] | ≤ 10 |  | 20.1 to 30 |  | 
11 | (R)-ethyl({1-[3-({2-[(3S,4R)-3-fluoro-4-methoxypiperidin-1-yl]pyrimidin-4-yl}amino)-5-(propan-2-yl)isoquinolin-8-yl]azetidin-3-yl}methyl)imino-λ^6-sulfanone or (S)-ethyl({1-[3-({2-[(3S,4R)-3-fluoro-4-methoxypiperidin-1-yl]pyrimidin-4-yl}amino)-5-(propan-2-yl)isoquinolin-8-yl]azetidin-3-yl}methyl)imino-λ^6-sulfanone [Compound 272] |  |  | ≤ 15 |  | ≤ 10
12 | CCS(=O)(=O)CC1CN(c2ccc(C(C)C)c3cc(Nc4ccnc(N5CC[C@@](C)(O)[C@@H](F)C5)n4)ncc23)C1 [Compound 276, (3S,4R)-1-{4-[(8-{3-[(ethanesulfonyl)methyl]azetidin-1-yl}-5-(propan-2-yl)isoquinolin-3-yl)amino]pyrimidin-2-yl}-3-fluoro-4-methylpiperidin-4-ol] | ≤ 10 |  | ≤ 15 |  | 
13 | COC1CCN(c2nccc(Nc3cc4c(C(C)C)cnc(N5C[C@H](CS(C)(=O)=O)[C@H]5C)c4cn3)n2)CC1 [Compound 50, 8-[(2R,3S)-3-(methanesulfonylmethyl)-2-methylazetidin-1-yl]-N-[2-(4-methoxypiperidin-1-yl)pyrimidin-4-yl]-5-(propan-2-yl)-2,7-naphthyridin-3-amine] | ≤ 10 |  | ≤ 15 |  | 
14 | CC(C)c1cnc(N2CC(CS(=O)(=O)C(F)(F)F)C2)c2cnc(Nc3ccnc(N4CC[C@@H](O)[C@@](C)(F)C4)n3)cc12 (single isomer, unassigned) [Compound 237] | 20.1 to 30 |  | 30.1 to 100 |  | 
15 | CO[C@@H]1[C@H](F)CN(c2nccc(Nc3cc4c(C(C)C)ccc(N5CC(CS(C)(=O)=O)C5)c4cn3)n2)C[C@@H]1O (racemic) [Compound 146, (3S,4S,5R)-5-fluoro-1-(4-((5-isopropyl-8-(3-((methylsulfonyl)methyl)azetidin-1-yl)isoquinolin-3-yl)amino)pyrimidin-2-yl)-4-methoxypiperidin-3-ol and (3R,4R,5S)-5-fluoro-1-(4-((5-isopropyl-8-(3-((methylsulfonyl)methyl)azetidin-1-yl)isoquinolin-3-yl)amino)pyrimidin-2-yl)-4-methoxypiperidin-3-ol] | 10.1 to 20 |  | 15.1 to 20 |  | 
16 | CC(C)c1cnc(N2CC([C@@H](C)S(C)(=O)=O)C2)c2cnc(Nc3ccnc(N4CC[C@@H](O)[C@@](C)(F)C4)n3)cc12 (single isomer, unassigned) [Compound 127] | ≤ 10 |  | ≤ 15 |  | 
17 | CCS(=O)(=O)CC1CN(c2ccc(C(C)C)c3cc(Nc4ccnc(N5CC[C@@H](OCCO)[C@@H](F)C5)n4)ncc23)C1 [Compound 292, 2-{[(3S,4R)-1-{4-[(8-{3-[(ethanesulfonyl)methyl]azetidin-1-yl}-5-(propan-2-yl)isoquinolin-3-yl)amino]pyrimidin-2-yl}-3-fluoropiperidin-4-yl]oxy}ethan-1-ol] | ≤ 10 |  | ≤ 15 |  | 

Reference: US12172983B2, “EGFR inhibitors” (Blueprint Medicines Corporation, priority 2019, dated 2024)
